Like-named read-outs stand apart in the source and are kept apart here.
Experiments:
cyclinK = experiment: Western blot, cyclinK degradation; assay type: cell-based; conditions: SK-Br3 cell line, 0.2 and 1 μM, 2 hours
[1] = system: Pol II CTD (Ser2) phosphorylation; experiment: Western blot, Pol II CTD Ser2 phosphorylation; assay type: cell-based; conditions: SK-Br3 cell line, 0.2 and 1 μM, 2 hours
CDK12/CyclinK = CDK12/CyclinK (Homo sapiens (Human), UniProt Q9NYV4); experiment: CDK12/cyclinK enzyme activity; assay type: biochemical; conditions: in vitro
CDK12/CyclinK, sequence (Q9NYV4 whole entry): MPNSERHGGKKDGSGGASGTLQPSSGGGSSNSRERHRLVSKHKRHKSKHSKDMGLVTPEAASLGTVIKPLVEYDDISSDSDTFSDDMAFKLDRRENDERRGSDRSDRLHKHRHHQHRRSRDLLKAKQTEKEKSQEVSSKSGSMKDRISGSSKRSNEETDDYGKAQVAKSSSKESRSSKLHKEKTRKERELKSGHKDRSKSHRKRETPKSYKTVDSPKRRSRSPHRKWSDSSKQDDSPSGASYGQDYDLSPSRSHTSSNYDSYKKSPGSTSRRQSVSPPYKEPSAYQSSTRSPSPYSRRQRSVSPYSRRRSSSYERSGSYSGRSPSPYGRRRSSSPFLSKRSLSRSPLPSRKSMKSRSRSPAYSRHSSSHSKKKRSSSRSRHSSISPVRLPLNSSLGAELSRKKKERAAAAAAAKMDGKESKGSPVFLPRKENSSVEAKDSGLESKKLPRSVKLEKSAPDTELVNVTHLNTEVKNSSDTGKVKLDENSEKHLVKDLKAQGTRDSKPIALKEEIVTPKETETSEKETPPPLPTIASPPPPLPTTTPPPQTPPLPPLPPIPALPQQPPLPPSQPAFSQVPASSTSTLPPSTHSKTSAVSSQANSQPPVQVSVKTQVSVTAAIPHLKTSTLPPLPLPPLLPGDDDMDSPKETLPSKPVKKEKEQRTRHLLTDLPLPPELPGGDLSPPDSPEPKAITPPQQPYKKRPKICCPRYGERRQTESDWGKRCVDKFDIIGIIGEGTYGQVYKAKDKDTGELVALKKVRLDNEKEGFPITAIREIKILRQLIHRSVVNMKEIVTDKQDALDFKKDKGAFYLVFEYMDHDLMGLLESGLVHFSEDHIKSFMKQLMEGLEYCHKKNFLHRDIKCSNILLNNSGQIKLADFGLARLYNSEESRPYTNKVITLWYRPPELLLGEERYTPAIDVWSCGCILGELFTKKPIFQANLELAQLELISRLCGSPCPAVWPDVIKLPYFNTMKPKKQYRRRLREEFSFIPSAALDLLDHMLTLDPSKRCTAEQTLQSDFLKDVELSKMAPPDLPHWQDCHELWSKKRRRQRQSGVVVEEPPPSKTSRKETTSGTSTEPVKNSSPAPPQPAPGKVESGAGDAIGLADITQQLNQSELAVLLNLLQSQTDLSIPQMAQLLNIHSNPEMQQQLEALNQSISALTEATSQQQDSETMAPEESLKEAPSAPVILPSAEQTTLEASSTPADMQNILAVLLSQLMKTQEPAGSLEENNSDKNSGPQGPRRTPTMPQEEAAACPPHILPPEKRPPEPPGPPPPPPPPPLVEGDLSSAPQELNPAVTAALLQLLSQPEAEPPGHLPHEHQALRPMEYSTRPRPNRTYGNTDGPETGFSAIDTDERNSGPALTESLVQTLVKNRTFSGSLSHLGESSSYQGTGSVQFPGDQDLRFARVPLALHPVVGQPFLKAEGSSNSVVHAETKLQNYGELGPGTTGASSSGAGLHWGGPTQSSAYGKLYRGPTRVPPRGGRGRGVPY
CDK12/CyclinK, sequence (O75909 whole entry partner): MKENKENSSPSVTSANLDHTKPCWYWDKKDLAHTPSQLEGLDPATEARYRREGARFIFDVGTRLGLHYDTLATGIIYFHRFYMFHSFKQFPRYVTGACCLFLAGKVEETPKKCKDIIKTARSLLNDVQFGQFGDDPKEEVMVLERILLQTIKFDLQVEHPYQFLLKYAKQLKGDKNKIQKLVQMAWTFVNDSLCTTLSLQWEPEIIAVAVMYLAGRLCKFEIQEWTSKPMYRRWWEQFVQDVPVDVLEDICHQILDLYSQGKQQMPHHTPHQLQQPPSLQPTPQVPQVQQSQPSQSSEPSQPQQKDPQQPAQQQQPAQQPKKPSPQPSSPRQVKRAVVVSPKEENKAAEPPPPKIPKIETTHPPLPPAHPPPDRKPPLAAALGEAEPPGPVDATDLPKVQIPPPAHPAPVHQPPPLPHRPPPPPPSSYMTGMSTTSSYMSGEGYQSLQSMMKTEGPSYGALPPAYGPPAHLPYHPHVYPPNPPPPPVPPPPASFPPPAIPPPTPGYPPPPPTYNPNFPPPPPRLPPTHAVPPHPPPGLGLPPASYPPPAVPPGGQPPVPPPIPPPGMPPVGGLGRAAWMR

HCC1954 cells = experiment: Breast cancer growth inhibitory activity (Cell-titer Glo, 72 h); assay type: cell-based; conditions: Homo sapiens
Experimental: (§1) Breast cancer cells in a culture solution (100 μL volume/well, 2,500 SK-Br3 cells/well, 1,000 HCC-1954 cells/well) were seeded into a tissue culture-treated 96-well plate and cultured in a cell incubator for 24 hours. […] Cell-titer Glo™ reagent (50 μL of a 5-fold diluted solution, Promega) was added to each well, and luminescence signals were measured using an Envision™ plate reader (PerkinElmer, USA). Titration curve fitting and IC50 values were generated using Prism 7.0 s/w (GraphPad, San Diego, USA).

SK-Br3 cells = experiment: as above; assay type: cell-based; conditions: Homo sapiens, SK-BR-3
Experimental: as §1

CYP2D6 = CYP2D6 (Homo sapiens (Human), UniProt P10635); experiment: CYP inhibitory activity; assay type: in vitro ADME; conditions: read-out: CYP % activity at 10 μM concentration 2D6
CYP2D6, sequence (P10635 whole entry): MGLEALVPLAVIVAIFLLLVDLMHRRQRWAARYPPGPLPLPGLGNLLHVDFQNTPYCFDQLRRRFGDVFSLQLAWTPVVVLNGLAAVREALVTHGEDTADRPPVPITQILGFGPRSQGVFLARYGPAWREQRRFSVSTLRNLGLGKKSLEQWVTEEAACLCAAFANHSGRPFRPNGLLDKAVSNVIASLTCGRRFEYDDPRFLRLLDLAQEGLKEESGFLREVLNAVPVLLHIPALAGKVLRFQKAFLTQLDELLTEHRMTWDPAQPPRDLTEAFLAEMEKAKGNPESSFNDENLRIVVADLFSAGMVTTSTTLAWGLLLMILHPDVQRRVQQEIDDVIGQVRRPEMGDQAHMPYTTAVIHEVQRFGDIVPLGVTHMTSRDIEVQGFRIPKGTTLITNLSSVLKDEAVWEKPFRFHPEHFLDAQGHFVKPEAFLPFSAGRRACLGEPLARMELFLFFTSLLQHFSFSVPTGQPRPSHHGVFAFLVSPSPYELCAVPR
Experimental: (§2) 5 derivatives were evaluated for in vitro metabolic stability in liver microsomes from three different species (human, dog, mouse) and for inhibitory activity against 5 representative cytochrome P450 enzymes (CYPs)(Table 3). In terms of liver microsomal stability, the 2′-pyridyl group is more suitable than the α-methyl-4′-pyridyl group as the terminal aromatic group at position 6, and the aminopyrimidyl group is better than the aminopyridyl group as a substituent at position 2.

CYP2C9 = CYP2C9 (Homo sapiens (Human), UniProt P11712); experiment: CYP inhibitory activity; assay type: in vitro ADME; conditions: read-out: CYP % activity at 10 μM concentration 2C9
CYP2C9, sequence (P11712 whole entry): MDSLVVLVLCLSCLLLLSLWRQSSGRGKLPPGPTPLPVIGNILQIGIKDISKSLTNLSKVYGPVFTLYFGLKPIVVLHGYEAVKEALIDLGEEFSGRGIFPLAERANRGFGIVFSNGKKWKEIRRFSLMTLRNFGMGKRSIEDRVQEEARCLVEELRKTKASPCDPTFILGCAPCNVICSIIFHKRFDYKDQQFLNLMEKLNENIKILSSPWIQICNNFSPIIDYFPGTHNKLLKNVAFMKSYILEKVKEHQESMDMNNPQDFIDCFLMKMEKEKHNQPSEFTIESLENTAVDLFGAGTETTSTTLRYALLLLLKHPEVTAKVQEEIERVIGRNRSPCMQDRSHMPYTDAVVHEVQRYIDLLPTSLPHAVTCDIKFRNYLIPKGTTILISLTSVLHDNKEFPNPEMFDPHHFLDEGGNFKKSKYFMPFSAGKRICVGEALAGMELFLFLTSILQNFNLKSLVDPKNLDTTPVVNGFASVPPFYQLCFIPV
Experimental: as §2

CYP2C19 = CYP2C19 (Homo sapiens (Human), UniProt P33261); experiment: CYP inhibitory activity; assay type: in vitro ADME; conditions: read-out: CYP % activity at 10 μM concentration 2C19
CYP2C19, sequence (P33261 whole entry): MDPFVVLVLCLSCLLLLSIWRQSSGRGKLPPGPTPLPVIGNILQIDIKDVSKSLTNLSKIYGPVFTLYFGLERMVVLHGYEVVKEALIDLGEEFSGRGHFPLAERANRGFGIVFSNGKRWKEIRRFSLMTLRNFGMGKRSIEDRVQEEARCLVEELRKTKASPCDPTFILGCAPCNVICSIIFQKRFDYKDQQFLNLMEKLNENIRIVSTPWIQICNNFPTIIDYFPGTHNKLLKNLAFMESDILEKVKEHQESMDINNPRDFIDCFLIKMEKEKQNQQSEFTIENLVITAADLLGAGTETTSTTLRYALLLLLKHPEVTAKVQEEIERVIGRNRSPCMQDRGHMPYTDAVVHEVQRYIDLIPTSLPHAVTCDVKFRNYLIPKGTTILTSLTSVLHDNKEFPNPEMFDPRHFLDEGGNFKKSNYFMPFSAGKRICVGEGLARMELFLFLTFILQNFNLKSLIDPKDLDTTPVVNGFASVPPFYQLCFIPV
Experimental: as §2

CYP3A4 = CYP3A4 (Homo sapiens (Human), UniProt P08684); experiment: CYP inhibitory activity; assay type: in vitro ADME; conditions: read-out: CYP % activity at 10 μM concentration 3A4
CYP3A4, sequence (P08684 whole entry): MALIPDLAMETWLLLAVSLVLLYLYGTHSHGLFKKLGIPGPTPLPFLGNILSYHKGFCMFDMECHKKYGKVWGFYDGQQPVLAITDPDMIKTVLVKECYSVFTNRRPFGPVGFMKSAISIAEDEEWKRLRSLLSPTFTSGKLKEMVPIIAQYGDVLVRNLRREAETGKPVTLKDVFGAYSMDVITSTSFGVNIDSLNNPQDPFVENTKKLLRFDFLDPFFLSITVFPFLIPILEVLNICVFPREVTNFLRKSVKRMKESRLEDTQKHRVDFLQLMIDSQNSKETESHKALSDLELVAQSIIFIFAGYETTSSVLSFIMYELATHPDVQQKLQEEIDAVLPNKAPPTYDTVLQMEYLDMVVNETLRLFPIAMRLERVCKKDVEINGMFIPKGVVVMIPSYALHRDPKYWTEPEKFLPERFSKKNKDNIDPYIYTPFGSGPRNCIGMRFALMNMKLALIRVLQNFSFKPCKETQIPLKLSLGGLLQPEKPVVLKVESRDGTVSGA
Experimental: as §2

CYP1A2 = CYP1A2 (Homo sapiens (Human), UniProt P05177); experiment: in vitro; assay type: in vitro ADME
CYP1A2, sequence (P05177 whole entry): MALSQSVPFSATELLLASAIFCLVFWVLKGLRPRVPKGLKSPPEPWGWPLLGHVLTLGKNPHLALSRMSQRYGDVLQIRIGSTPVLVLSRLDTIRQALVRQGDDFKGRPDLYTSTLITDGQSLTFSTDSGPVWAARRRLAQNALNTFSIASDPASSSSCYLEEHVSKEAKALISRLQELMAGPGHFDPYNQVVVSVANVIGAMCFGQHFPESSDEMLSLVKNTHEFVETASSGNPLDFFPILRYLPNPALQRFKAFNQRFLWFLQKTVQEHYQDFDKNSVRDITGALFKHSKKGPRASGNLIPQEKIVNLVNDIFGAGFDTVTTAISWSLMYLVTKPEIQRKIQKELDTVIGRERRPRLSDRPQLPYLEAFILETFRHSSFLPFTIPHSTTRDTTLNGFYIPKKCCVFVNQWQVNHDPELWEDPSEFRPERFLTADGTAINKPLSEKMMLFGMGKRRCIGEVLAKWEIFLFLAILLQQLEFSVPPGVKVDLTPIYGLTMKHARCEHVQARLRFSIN
Experimental: as §2

[2] = Liver microsomal metabolic stability; assay type: in vitro ADME; conditions: for Liver microsomal metabolic stability (% remaining amount) Dog: dog liver microsomes; for Liver microsomal metabolic stability (% remaining amount) Human: human liver microsomes; for Liver microsomal metabolic stability (% remaining amount) Mouse: mouse liver microsomes
Experimental: as §2

[3] = 72 hours, read-out: HCC1954 (GI50/μM)
[4] = 72 hours, read-out: SK-Br3 (GI50/μM)

SMILES | IC50 (CDK12/CyclinK) [µM] | GI50 (HCC1954 cells; [3]) [µM] | GI50 (SK-Br3 cells; [4]) [µM] | other results
CC(C)n1cnc2c(NCc3ccc(-c4ccccn4)cn3)nc(-c3cccnc3)nc21 [Example 1, N-([2,3′-bipyridin]-6′-ylmethyl)-9-isopropyl-2-(pyridin-3-yl)-9H-purin-6-amine] | 0.433 | 0.105 |  | cyclinK degradation (cyclinK): induced the degradation of cyclinK; Pol II CTD (Ser2) phosphorylation [1]: inhibited Pol II CTD (Ser2) phosphorylation in a dose-dependent manner
CC(C)n1cnc2c(NCc3ccc(-c4cccnc4)cn3)nc(-c3cccnc3)nc21 [Example 2, N-([3,3′-bipyridin]-6-ylmethyl)-9-isopropyl-2-(pyridin-3-yl)-9H-purin-6-amine] | 0.582 | 0.659 | 0.866 | cyclinK degradation (cyclinK): induced the degradation of cyclinK; Pol II CTD (Ser2) phosphorylation [1]: inhibited Pol II CTD (Ser2) phosphorylation in a dose-dependent manner
CC(C)n1cnc2c(NCc3ccc(-c4ccncc4)cn3)nc(-c3cccnc3)nc21 [Example 4, N-([3,4′-bipyridin]-6-ylmethyl)-9-isopropyl-2-(pyridin-3-yl)-9H-purin-6-amine] | 0.627 | 0.888 | 0.74 | cyclinK degradation (cyclinK): induced the degradation of cyclinK; Pol II CTD (Ser2) phosphorylation [1]: inhibited Pol II CTD (Ser2) phosphorylation in a dose-dependent manner
Cc1cc(-c2ccc(CNc3nc(-c4cccnc4)nc4c3ncn4C(C)C)nc2)ccn1 [Example 5, 9-isopropyl-N-((2′-methyl-[3,4′-bipyridin]-6-yl)methyl)-2-(pyridin-3-yl)-9H-purin-6-amine] | 0.481 |  |  | cyclinK degradation (cyclinK): induced the degradation of cyclinK; Pol II CTD (Ser2) phosphorylation [1]: inhibited Pol II CTD (Ser2) phosphorylation in a dose-dependent manner
CC(C)n1cnc2c(NCc3ccc(-c4cccnc4)nc3)nc(-c3ccccc3NCCO)nc21 [Example 31, 2-((2-(6-(([2,3′-bipyridin]-5-ylmethyl)amino)-9-isopropyl-9H-purin-2-yl)phenyl)amino)ethan-1-ol] | 0.799 | 1.56 | 2.31 | 
CC(C)n1cnc2c(NCc3ccc(-c4cccnc4)nc3)nc(-c3ccccc3NCCCO)nc21 [Example 32, 3-((2-(6-(([2,3′-bipyridin]-5-ylmethyl)amino)-9-isopropyl-9H-purin-2-yl)phenyl)amino)propan-1-ol] | 3.01 | 6.09 | 11.3 | 
CC(C)n1cnc2c(NCc3ccc(-c4cccnc4)nc3)nc(-c3ccc(NCCCO)cc3)nc21 [Example 34, 3-((4-(6-(([2,3′-bipyridin]-5-ylmethyl)amino)-9-isopropyl-9H-purin-2-yl)phenyl)amino)propan-1-ol] | 0.499 | 0.906 | 1.09 | 
CC(C)n1cnc2c(NCc3ccc(-c4cccnc4)nc3)nc(-c3ccc(NCCO)nc3)nc21 [Example 35, 2-((5-(6-(([2,3′-bipyridin]-5-ylmethyl)amino)-9-isopropyl-9H-purin-2-yl)pyridin-2-yl)amino)ethan-1-ol] | 0.053 | 0.173 | 0.261 | 
Cc1cc(N)n(-c2nc(NCc3ccc(-c4cccnc4)nc3)c3ncn(C(C)C)c3n2)n1 [Example 40, N-([2,3′-bipyridin]-5-ylmethyl)-2-(5-amino-3-methyl-1H-pyrazol-1-yl)-9-isopropyl-9H-purin-6-amine] | 2.35 | 3.45 | 5.18 | 

The next lines start with results.

IC50 (CDK12/CyclinK) [µM] | GI50 (HCC1954 cells; [3]) [µM] | GI50 (SK-Br3 cells; [4]) [µM] | SMILES | other results
2.05 | 10 | 13.3 | CC(C)n1cnc2c(NCc3ccc(-c4cccnc4)nc3)nc(-n3cc(CO)nn3)nc21 [Example 41, (1-(6-(([2,3′-bipyridin]-5-ylmethyl)amino)-9-isopropyl-9H-purin-2-yl)-1H-1,2,3-triazol-4-yl)methanol] | 
0.539 | 6.5 | 8.29 | CC(C)n1cnc2c(NCc3ccc(-c4cccnc4)nc3)nc(-n3cc(CCO)nn3)nc21 [Example 42, 2-(1-(6-(([2,3′-bipyridin]-5-ylmethyl)amino)-9-isopropyl-9H-purin-2-yl)-1H-1,2,3-triazol-4-yl)ethan-1-ol] | 
0.293 | 2.14 | 2.6 | c1cncc(-c2ccc(CNc3nc(-c4cccnc4)nc4c3ncn4C3CCCC3)cn2)c1 [Example 47, N-([2,3′-bipyridin]-5-ylmethyl)-9-cyclopentyl-2-(pyridin-3-yl)-9H-purin-6-amine] | 
0.012 |  | 0.133 | CCn1cnc2c(NCc3ccc(-c4ccnc(C)c4)nc3)nc(-c3ccc(N)nc3)nc21 [Example 49, 2-(6-aminopyridin-3-yl)-9-ethyl-N-((2′-methyl-[2,4′-bipyridin]-5-yl)methyl)-9H-purin-6-amine] | activity at 10 µM (CYP2D6): 89.6%; activity at 10 µM (CYP2C9): 73%; activity at 10 µM (CYP2C19): 76.8%; activity at 10 µM (CYP3A4): 38.9%; activity at 10 µM (CYP1A2): 59.3%; Liver microsomal metabolic stability (% remaining amount) Dog [2]: 45.1%; Liver microsomal metabolic stability (% remaining amount) Human [2]: 32.2%; Liver microsomal metabolic stability (% remaining amount) Mouse [2]: 35.3%
0.019 |  |  | CCn1cnc2c(NCc3ccc(-c4ccnc(C)c4)nc3)nc(-c3cnc(N)nc3)nc21 [Example 50, 2-(2-aminopyrimidin-5-yl)-9-ethyl-N-((2′-methyl-[2,4′-bipyridin]-5-yl)methyl)-9H-purin-6-amine] | activity at 10 µM (CYP2D6): 85.7%; activity at 10 µM (CYP2C9): 82.9%; activity at 10 µM (CYP2C19): 75.4%; activity at 10 µM (CYP3A4): 72.4%; activity at 10 µM (CYP1A2): 74.9%; Liver microsomal metabolic stability (% remaining amount) Dog [2]: 53.6%; Liver microsomal metabolic stability (% remaining amount) Human [2]: 40.6%; Liver microsomal metabolic stability (% remaining amount) Mouse [2]: 45.0%
0.056 | 0.156 | 0.192 | CCn1cnc2c(NCc3ccc(-c4ccnc(C)c4)nc3)nc(-c3cncnc3)nc21 [Example 51, 9-ethyl-N-((2′-methyl-[2,4′-bipyridin]-5-yl)methyl)-2-(pyrimidin-5-yl)-9H-purin-6-amine] | activity at 10 µM (CYP2D6): 88.8%; activity at 10 µM (CYP2C9): 67.5%; activity at 10 µM (CYP2C19): 73.9%; activity at 10 µM (CYP3A4): 31.8%; activity at 10 µM (CYP1A2): 68.6%; Liver microsomal metabolic stability (% remaining amount) Dog [2]: 79.5%; Liver microsomal metabolic stability (% remaining amount) Human [2]: 27.3%; Liver microsomal metabolic stability (% remaining amount) Mouse [2]: 34.0%
0.05 | 0.214 |  | CN(C)C/C=C/C(=O)Nc1ccc(C(=O)N2CCC[C@@H](Nc3ncc(Cl)c(-c4c[nH]c5ccccc45)n3)C2)cc1 [THZ531, reference compound] | GI50 (HCC1954 cells; read-out: HCC1954 GI50): 0.214 µM; GI50 (SK-Br3 cells; read-out: SK-Br3 GI50): 0.03 µM
